Source: the supplement of paper PMC10307832

Experiments:
Assay in all cases: relative viability (nuclei count vs DMSO), 5 days (fraction); higher = more cells survive
[1] = compound: CC(O)(CS(=O)(=O)c1ccc(F)cc1)C(=O)Nc1ccc(C#N)c(C(F)(F)F)c1 [Bicalutamide] + CS(=O)(=O)N1CCN(Cc2cc3nc(-c4cccc5[nH]ncc45)nc(N4CCOCC4)c3s2)CC1 [Pictilisib] (partner 1 µM)
Summary of the method: (§1)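 Relative viability is defined as nuclei in treated wells over nuclei in vehicle wells. Duplicate plates were run and medians reported. Lung cancer cell lines in 1536-well plates were dosed by pin tool one day after seeding, with one drug or with a fixed anchor-drug dose plus five library-drug doses (not always all listed) in √10 steps, and nuclei were counted after 5 days.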

[2] = compound: C(C(=O)C(=O)O)Br [Bromopyruvate] + CCNC(=O)c1noc(-c2cc(C(C)C)c(O)cc2O)c1-c1ccc(CN2CCOCC2)cc1 [Luminespib] (partner 0.01 µM)
Summary of the method: as §1

[3] = compound: C(C(=O)C(=O)O)Br [Bromopyruvate] + O=C(c1cc(Cc2n[nH]c(=O)c3ccccc23)ccc1F)N1CCN(C(=O)C2CC2)CC1 [Olaparib] (partner 8 µM)
Summary of the method: as §1

[4] = compound: CC(O)(CS(=O)(=O)c1ccc(F)cc1)C(=O)Nc1ccc(C#N)c(C(F)(F)F)c1 [Bicalutamide] + NC(=O)Nc1cc(-c2cccc(F)c2)sc1C(=O)N[C@H]1CCCNC1 [AZD7762] (partner 0.2 µM)
Summary of the method: as §1

Cell Line	relative viability ([1]; first compound 0.253 µM)	relative viability ([1]; first compound 0.8 µM)	relative viability ([1]; first compound 2.53 µM)	relative viability ([2]; first compound 1 µM)	relative viability ([2]; first compound 3.162 µM)	relative viability ([2]; first compound 10 µM)	relative viability ([2]; first compound 31.62 µM)	relative viability ([2]; first compound 100 µM)	relative viability ([3]; first compound 1 µM)	relative viability ([3]; first compound 3.162 µM)	relative viability ([3]; first compound 10 µM)	relative viability ([3]; first compound 31.62 µM)	relative viability ([3]; first compound 100 µM)	relative viability ([4]; first compound 0.08 µM)	relative viability ([4]; first compound 0.253 µM)	relative viability ([4]; first compound 0.8 µM)	relative viability ([4]; first compound 2.53 µM)	relative viability ([1]; first compound 0.08 µM)
NCI-H1993	0.764	0.744	0.671	0.483	0.997	1.26	0.862	0.833	1.56	1	0.927	1.09	1.02	0.539	0.744	0.919	0.58	–
NCI-H2126	0.468	0.511	0.43	0.888	0.892	0.943	0.896	0.874	0.912	0.879	0.988	0.939	0.923	0.994	0.918	1.01	0.856	0.494
LC-2-ad	0.459	0.637	0.502	1.02	1.11	1.21	1.04	0.843	0.816	0.665	0.352	0.666	0.664	0.852	0.838	0.915	0.883	0.536
NCI-H1915	0.782	1	0.775	0.673	0.849	0.925	0.706	0.781	0.261	0.267	0.242	0.254	0.22	0.721	0.616	0.712	0.682	0.91
NCI-H1793	0.208	0.415	0.281	0.207	0.148	0.145	0.218	0.303	0.841	0.95	0.925	0.921	0.89	0.705	–	0.432	0.282	0.285
NCI-H2085	0.461	0.442	0.39	0.417	0.425	0.508	0.396	0.217	0.794	0.81	0.772	0.818	0.551	0.983	0.99	1.02	0.901	0.445
LXF-289	0.728	0.855	0.757	0.744	0.71	0.779	0.808	0.753	1.13	1.03	1.1	1.15	1.04	1.17	1.05	1.11	1.1	0.759
PC-3 [JPC-3]	0.56	0.822	0.723	0.797	0.752	0.766	0.608	0.693	1.22	–	1.11	–	1.11	0.86	0.815	0.912	0.874	0.76
NCI-H1666	0.404	0.477	0.406	1.08	1.14	0.989	1.04	0.844	0.685	0.733	0.73	0.707	0.716	0.928	0.759	0.873	0.801	0.392
